Measurements taken from article PMC11672637, “7-O-Carboxylic Acid-Substituted 3-O-Alkyl Difluoroquercetin; An Aztreonam-Potentiating Agent Against Carbapenemase-Producing Pseudomonas aeruginosa Through Simultaneous Inhibition of Metallo-β-Lactamase and Efflux Pump” (Antibiotics, 2024).
In brackets after ≈: the same amount, converted by molar mass. Like-named read-outs stand apart in the source and are kept apart here.

Assays:
[1] = test system: All CPPA (n = 26); assay: MIC distribution over clinical isolates; type: cell-based, P. aeruginosa; conditions: Pseudomonas aeruginosa; for inhibition at 4 µg/mL: read-out: Cumulative % inhibition by ATM, 5 at 4 mg/L; for inhibition at 8 µg/mL: read-out: Cumulative % inhibition by ATM, 5 at 8 mg/L; for inhibition at 16 µg/mL: read-out: Cumulative % inhibition by ATM, 5 at 16 mg/L; for inhibition at 32 µg/mL: read-out: Cumulative % inhibition by ATM, 5 at 32 mg/L; for inhibition at 64 µg/mL: read-out: Cumulative % inhibition by ATM, 5 at 64 mg/L
[2] = test system: PA-002, blaIMP; assay: Time–kill assay; type: cell-based, P. aeruginosa; conditions: ATM 1/2 MIC + 5 at 8 mg/L
Description: Aliquots (50 μL) were taken from the incubation mixture at regular time intervals (t = 0, 3, 6, and 24 h), serially diluted in 0.85% NaCl solution, and plated on BAP. Bacterial colonies were counted, and the data are presented as the means of at least three independent experiments.

Molecule `CC(C)(C)CCOc1c(-c2ccc(F)c(F)c2)oc2cc(OCC(=O)O)cc(O)c2c1=O` [Compound 5, 2-((2-(3,4-Difluorophenyl)-3-(3,3-dimethylbutoxy)-5-hydroxy-4-oxo-4H-chromen-7-yl)oxy)acetic Acid] has an inhibition at 4 µg/mL ([1]; ATM 2 mg/L) of 31%, an inhibition at 4 µg/mL ([1]; ATM 4 mg/L) of 46% and an inhibition at 4 µg/mL ([1]; ATM 8 mg/L) of 81%. It also gave an inhibition at 4 µg/mL ([1]; ATM 16 mg/L) of 100%, an inhibition at 4 µg/mL ([1]; ATM 32 mg/L) of 100% and an inhibition at 4 µg/mL ([1]; ATM 64 mg/L) of 100%. It also gave an inhibition at 8 µg/mL ([1]; ATM 0.5 mg/L) of 4%, an inhibition at 8 µg/mL ([1]; ATM 1 mg/L) of 19% and an inhibition at 8 µg/mL ([1]; ATM 2 mg/L) of 38%. The inhibition at 8 µg/mL ([1]; ATM 4 mg/L) was 69%, the inhibition at 8 µg/mL ([1]; ATM 8 mg/L) was 88% and the inhibition at 8 µg/mL ([1]; ATM 16 mg/L) was 100%. It also gave an inhibition at 8 µg/mL ([1]; ATM 32 mg/L) of 100%, an inhibition at 8 µg/mL ([1]; ATM 64 mg/L) of 100% and an inhibition at 16 µg/mL ([1]; ATM 0.5 mg/L) of 4%. The inhibition at 16 µg/mL ([1]; ATM 1 mg/L) was 27%, the inhibition at 16 µg/mL ([1]; ATM 2 mg/L) was 50% and the inhibition at 16 µg/mL ([1]; ATM 4 mg/L) was 81%. For the same molecule, the inhibition at 16 µg/mL ([1]; ATM 8 mg/L) was 96%, the inhibition at 16 µg/mL ([1]; ATM 16 mg/L) was 100% and the inhibition at 16 µg/mL ([1]; ATM 32 mg/L) was 100%. The inhibition at 16 µg/mL ([1]; ATM 64 mg/L) was 100%, the inhibition at 32 µg/mL ([1]; ATM 0.5 mg/L) was 4% and the inhibition at 32 µg/mL ([1]; ATM 1 mg/L) was 35%. It also gave an inhibition at 32 µg/mL ([1]; ATM 2 mg/L) of 54%, an inhibition at 32 µg/mL ([1]; ATM 4 mg/L) of 88% and an inhibition at 32 µg/mL ([1]; ATM 8 mg/L) of 96%. It also gave an inhibition at 32 µg/mL ([1]; ATM 16 mg/L) of 100%, an inhibition at 32 µg/mL ([1]; ATM 32 mg/L) of 100% and an inhibition at 32 µg/mL ([1]; ATM 64 mg/L) of 100%. For the same molecule, the inhibition at 64 µg/mL ([1]; ATM 0.5 mg/L) was 4%, the inhibition at 64 µg/mL ([1]; ATM 1 mg/L) was 38% and the inhibition at 64 µg/mL ([1]; ATM 2 mg/L) was 58%. The inhibition at 64 µg/mL ([1]; ATM 4 mg/L) was 92%, the inhibition at 64 µg/mL ([1]; ATM 8 mg/L) was 96% and the inhibition at 64 µg/mL ([1]; ATM 16 mg/L) was 100%. For the same molecule, the inhibition at 64 µg/mL ([1]; ATM 32 mg/L) was 100%, the inhibition at 64 µg/mL ([1]; ATM 64 mg/L) was 100% and the MIC50 ([1]; read-out: MIC50 of ATM, 5 at 1 mg/L) was 16 µg/mL (≈ 35.7 µM). The MIC50 ([1]; read-out: MIC50 of ATM, 5 at 2 mg/L) was 16 µg/mL (≈ 35.7 µM), the MIC50 ([1]; read-out: MIC50 of ATM, 5 at 4 mg/L) was 8 µg/mL (≈ 17.8 µM) and the MIC50 ([1]; read-out: MIC50 of ATM, 5 at 8 mg/L) was 4 µg/mL (≈ 8.92 µM). It also gave an MIC50 ([1]; read-out: MIC50 of ATM, 5 at 16 mg/L) of 4 µg/mL (≈ 8.92 µM), an MIC50 ([1]; read-out: MIC50 of ATM, 5 at 32 mg/L) of 2 µg/mL (≈ 4.46 µM) and an MIC50 ([1]; read-out: MIC50 of ATM, 5 at 64 mg/L) of 2 µg/mL (≈ 4.46 µM). It also gave an MIC90 ([1]; read-out: MIC90 of ATM, 5 at 1 mg/L) of 32 µg/mL (≈ 71.4 µM), an MIC90 ([1]; read-out: MIC90 of ATM, 5 at 2 mg/L) of 32 µg/mL (≈ 71.4 µM) and an MIC90 ([1]; read-out: MIC90 of ATM, 5 at 4 mg/L) of 16 µg/mL (≈ 35.7 µM). It also gave an MIC90 ([1]; read-out: MIC90 of ATM, 5 at 8 mg/L) of 16 µg/mL (≈ 35.7 µM), an MIC90 ([1]; read-out: MIC90 of ATM, 5 at 16 mg/L) of 8 µg/mL (≈ 17.8 µM) and an MIC90 ([1]; read-out: MIC90 of ATM, 5 at 32 mg/L) of 8 µg/mL (≈ 17.8 µM). For the same molecule, the MIC90 ([1]; read-out: MIC90 of ATM, 5 at 64 mg/L) was 8 µg/mL (≈ 17.8 µM), the “Diff. (ATM + 5, 24 h vs initial inoculum)” value [2] was 1.21 Log CFU/mL and the “Diff. (ATM + 5 vs ATM only)” value [2] was −2.36 Log CFU/mL. For the same molecule, the “Synergistic activity, interpretation” value [2] was “Synergy (a ≥ 2 log10 decrease in CFU/mL for the combination of ATM and 5 compared to ATM alone after 24 h of incubation)”.
